# Experimental data as given in US9012410B2, “Method of treating intrauterine inflammation” (Case Western Reserve University, priority 2006, dated 2015).
# What was measured:
# mice = conditions: literature (Elovitz et al., 2006); cited from earlier work
# human TLR2 = biological target: T1, human TLR2 (Homo sapiens, UniProt O60603+Q15399); experiment: IL-8 expression from HEK293/hTLR2 cells by ELISA; format: cell-based; conditions: 24-h incubation, varying concentrations
# T1 construct: host or cells: HEK293
# T1 sequence (O60603 21-784): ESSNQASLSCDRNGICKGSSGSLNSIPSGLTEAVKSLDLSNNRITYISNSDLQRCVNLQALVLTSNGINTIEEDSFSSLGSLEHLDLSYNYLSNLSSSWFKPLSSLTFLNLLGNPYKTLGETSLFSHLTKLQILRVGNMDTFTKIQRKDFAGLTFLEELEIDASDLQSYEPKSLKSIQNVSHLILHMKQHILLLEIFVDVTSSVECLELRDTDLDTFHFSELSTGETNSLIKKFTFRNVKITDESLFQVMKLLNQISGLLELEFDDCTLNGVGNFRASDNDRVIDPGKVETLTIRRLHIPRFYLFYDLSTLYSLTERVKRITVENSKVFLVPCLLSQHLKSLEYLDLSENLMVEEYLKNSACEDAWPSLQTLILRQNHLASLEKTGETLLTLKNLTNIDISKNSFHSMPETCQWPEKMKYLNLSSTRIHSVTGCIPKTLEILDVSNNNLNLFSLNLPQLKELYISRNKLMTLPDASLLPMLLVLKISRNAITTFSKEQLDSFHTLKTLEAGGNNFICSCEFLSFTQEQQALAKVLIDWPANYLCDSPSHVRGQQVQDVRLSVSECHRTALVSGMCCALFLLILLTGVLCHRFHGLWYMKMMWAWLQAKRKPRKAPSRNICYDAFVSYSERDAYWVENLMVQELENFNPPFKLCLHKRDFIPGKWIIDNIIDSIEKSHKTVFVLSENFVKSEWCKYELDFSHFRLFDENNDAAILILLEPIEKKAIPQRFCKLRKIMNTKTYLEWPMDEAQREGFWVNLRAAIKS
# T1 sequence (Q15399 25-786): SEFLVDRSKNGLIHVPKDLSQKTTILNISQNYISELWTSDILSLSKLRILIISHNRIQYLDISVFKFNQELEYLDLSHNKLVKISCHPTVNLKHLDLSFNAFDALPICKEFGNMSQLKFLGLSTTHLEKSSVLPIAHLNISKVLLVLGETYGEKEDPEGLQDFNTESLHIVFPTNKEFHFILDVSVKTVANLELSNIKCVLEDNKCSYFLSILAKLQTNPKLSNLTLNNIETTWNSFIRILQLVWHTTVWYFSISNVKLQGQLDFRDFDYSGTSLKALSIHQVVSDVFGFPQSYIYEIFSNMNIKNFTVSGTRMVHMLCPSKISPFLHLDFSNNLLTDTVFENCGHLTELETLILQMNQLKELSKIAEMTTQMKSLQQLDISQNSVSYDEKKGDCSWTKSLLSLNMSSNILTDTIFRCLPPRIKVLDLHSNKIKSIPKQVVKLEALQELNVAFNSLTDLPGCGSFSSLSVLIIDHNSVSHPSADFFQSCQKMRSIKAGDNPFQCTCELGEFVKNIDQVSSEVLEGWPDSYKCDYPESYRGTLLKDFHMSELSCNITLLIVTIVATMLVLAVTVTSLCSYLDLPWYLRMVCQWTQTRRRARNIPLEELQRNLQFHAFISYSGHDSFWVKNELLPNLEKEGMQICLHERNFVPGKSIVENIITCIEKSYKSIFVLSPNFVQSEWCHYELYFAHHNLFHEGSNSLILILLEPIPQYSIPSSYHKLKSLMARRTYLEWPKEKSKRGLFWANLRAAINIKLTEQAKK
# Experimental: (§1) HEK293 or HEK293/hTLR2 and HEK293/hTLR4/MD2/CD14, were seeded into 96-well plates at a density of 50,000 cells/well and allowed to grow overnight. The cells were then incubated with and N-palmitoyl(S)-[2,3-bis(palmitoyloxy)-(2, RS)-propyl]-Cys-Scr-Lys4 (Pam3CSK4), ultrapure Escherichia coli LPS, or fresh cultures of F. nucleatum 12230 at the indicated doses followed by a 24-h incubation. The supernatant was harvested and centrifuged and the amount of IL-8 secreted was determined by ELISA.
# (§2) Immunlon flat-bottom 96-well microliter plates (Thermo Electron, Mass) were coated with goat anti-human IL-8 Ab (4 μg/ml; R&D System) in 100 μl of coating buffer (0.05 M carbonate buffer (pH 9.6)). After overnight incubation at 4° C., the plates were washed six times with washing buffer, i.e., 0.05% Tween 20 in PBS (Sigma-Aldrich), followed by an overnight incubation in blocking buffer (1% BSA in PBS) at 4° C. The plates were washed four times before an aliquot of 100 μl of diluted mammalian cell culture supernatant or human IL-8 (R&D Systems, Minn) were added to each well and incubated overnight at 4° C. The plates were washed, followed by 3-h incubation with polyclonal rabbit anti-human 11,-8 Ab (1/1000; Endogen) at room temperature. […] The light absorbance was measured at 450 nm on a Bio-Rad Model 680 microplate reader. […]
# human TLR4/MD2/CD14 = biological target: T2, human TLR4/MD2/CD14 (Homo sapiens, UniProt O00206+Q9Y6Y9); experiment: IL-8 expression from HEK293/hTLR4/MD2/CD14 cells by ELISA; format: cell-based; conditions: 24-h incubation, varying concentrations
# T2 construct: host or cells: HEK293
# T2 sequence (O00206 24-839): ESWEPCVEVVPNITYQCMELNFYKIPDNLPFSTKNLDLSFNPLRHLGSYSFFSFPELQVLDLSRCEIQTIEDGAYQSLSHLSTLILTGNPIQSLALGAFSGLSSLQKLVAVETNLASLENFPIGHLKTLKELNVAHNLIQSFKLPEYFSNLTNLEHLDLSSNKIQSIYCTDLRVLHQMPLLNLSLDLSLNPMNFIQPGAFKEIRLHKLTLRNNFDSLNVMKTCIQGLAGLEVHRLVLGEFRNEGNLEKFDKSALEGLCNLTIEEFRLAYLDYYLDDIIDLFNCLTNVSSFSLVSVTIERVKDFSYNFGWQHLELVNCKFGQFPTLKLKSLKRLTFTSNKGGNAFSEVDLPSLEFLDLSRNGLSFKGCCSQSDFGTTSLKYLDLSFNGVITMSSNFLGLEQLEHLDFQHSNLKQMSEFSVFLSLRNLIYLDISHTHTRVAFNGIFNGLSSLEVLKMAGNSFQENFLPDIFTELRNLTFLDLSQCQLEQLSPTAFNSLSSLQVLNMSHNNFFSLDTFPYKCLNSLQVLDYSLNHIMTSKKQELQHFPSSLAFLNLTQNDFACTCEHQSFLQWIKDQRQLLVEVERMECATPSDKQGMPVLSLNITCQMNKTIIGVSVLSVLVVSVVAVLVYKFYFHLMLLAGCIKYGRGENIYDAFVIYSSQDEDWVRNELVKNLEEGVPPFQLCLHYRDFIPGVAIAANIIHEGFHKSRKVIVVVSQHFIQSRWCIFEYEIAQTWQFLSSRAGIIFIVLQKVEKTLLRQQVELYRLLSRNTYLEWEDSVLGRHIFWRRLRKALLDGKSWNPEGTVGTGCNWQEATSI
# T2 sequence (Q9Y6Y9 19-160): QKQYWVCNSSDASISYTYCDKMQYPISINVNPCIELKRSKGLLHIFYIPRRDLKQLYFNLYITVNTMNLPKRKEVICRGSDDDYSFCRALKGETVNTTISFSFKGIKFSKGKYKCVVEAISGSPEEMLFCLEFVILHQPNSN
# Experimental: as §1, §2
Compound,maternal morbidity in mice (mice),activation of TLR2 (IL-8 expression) (human TLR2),activation of TLR4 (IL-8 expression) (human TLR4/MD2/CD14)
CCCCCC(=O)O[C@]1(C(C)=O)CC[C@H]2[C@@H]3CCC4=CC(=O)CC[C@]4(C)[C@H]3CC[C@@]21C [17-α hydroxyprogesterone caproate],significant maternal morbidity,–,–
"N-palmitoyl(S)-[2,3-bis(palmitoyloxy)-(2, RS)-propyl]-Cys-Scr-Lys4 [Pam3CSK4]",–,only activated their respective receptors,not vice versa
